Measured values taken from patent publication US20160175380A1, “Compositions and Methods of Treatment of Corneal Endothelium Disorders” (The Schepens Eye Research Institute, Inc., priority 2010, published 2016).
Where two headings read alike, the source gives them in different places.

Tests used:
[1] = system: Nrf2 mRNA expression in HCECi; conditions: H2O2 200 μM, 2 hours; normalized to B2M; non-treated control 1.00±0.05; P=0.004
Experimental: Human Corneal Endothelial Cell Culture. […] The culture medium of subconfluent cells was replaced with serum-free medium (OptiMEM-1; Invitrogen-Life Technologies) alone or supplemented with H2O2 (200 μM) and incubated for 2 hours at 37° C. At the end of the treatment, cell viability was evaluated by trypan blue staining. Real-time PCR. […] Reverse transcription was performed using a commercially available kit (Promega). […] Real-time PCR reactions were run on an ABI Prism 7500 HT Sequence Detection System (Applied Biosystems). For data analysis, the comparative Ct method was performed.

[2] = system: HCECi; conditions: H2O2 200 μM, 2 hours; P=0.001
Experimental: Human Corneal Endothelial Cell Culture. […] The culture medium of subconfluent cells was replaced with serum-free medium (OptiMEM-1; Invitrogen-Life Technologies) alone or supplemented with H2O2 (200 μM) and incubated for 2 hours at 37° C. At the end of the treatment, cell viability was evaluated by trypan blue staining.

[3] = system: mouse corneal endothelium; conditions: 30 minutes
Experimental: Corneal Whole Mount Assays. Eight (8-) to 12-wk-old male BALB/c and C57BL/6 (from Taconic Farms, Germantown, NY and our own breeding facility) were used for corneal whole mount assays. All protocols were approved by the Schepens Eye Research Institute Animal Care and Use Committee, and all animals were treated according to the Association for Research in Vision and Ophthalmology Statement for the Use of Animals in Ophthalmic and Vision Research. […] Control corneal buttons were incubated in DMEM only at 37° C. for 0-12 hours. Immunocytochemistry. Immunocytochemistry was performed as previously described.17 Normal, FECD, and PBK corneas were incubated in culture medium containing 100 nM MitoTracker Red CMXRos (Molecular Probes) for 30 minutes at 37° C., then fixed with 3.7% formaldehyde. […] Millipore) followed by incubation with appropriate secondary antibodies. Nuclei were stained with TO-[…] iodide (Molecular Probes). […] Invitrogen). […] Bioscience), propidium iodide (1:200; Invitrogen), and TUNEL assay (In Situ Cell Death Detection Kit, Roche Diagnostics GmbH) according to the manufacturers' instructions. Digital images were obtained using a spectral photometric confocal microscope ([…][…] with LCS 1.3.1 software). Analysis of CE Cell Morphology. […] (variation in cell size) and pleomorphism (variation in cell shape) were then calculated.

[4] = system: mouse corneal endothelium; conditions: 1 μM
Experimental: Corneal Whole Mount Assays. Eight (8-) to 12-wk-old male BALB/c and C57BL/6 (from Taconic Farms, Germantown, NY and our own breeding facility) were used for corneal whole mount assays. All protocols were approved by the Schepens Eye Research Institute Animal Care and Use Committee, and all animals were treated according to the Association for Research in Vision and Ophthalmology Statement for the Use of Animals in Ophthalmic and Vision Research. […] Control corneal buttons were incubated in DMEM only at 37° C. for 0-12 hours. Immunocytochemistry. Immunocytochemistry was performed as previously described.17 Normal, FECD, and PBK corneas were incubated in culture medium containing 100 nM MitoTracker Red CMXRos (Molecular Probes) for 30 minutes at 37° C., then fixed with 3.7% formaldehyde. […] Millipore) followed by incubation with appropriate secondary antibodies. Nuclei were stained with TO-[…] iodide (Molecular Probes). […] Invitrogen). […] Bioscience), propidium iodide (1:200; Invitrogen), and TUNEL assay (In Situ Cell Death Detection Kit, Roche Diagnostics GmbH) according to the manufacturers' instructions. Digital images were obtained using a spectral photometric confocal microscope ([…][…] with LCS 1.3.1 software).

[5] = system: FECD corneal endothelium attached to the Descemet membrane; assay: Endothelial cell apoptosis (TUNEL) in post-keratoplasty FECD specimens, +/- tBHP; type: cell-based, human
Experimental: Immunocytochemistry. […] After permeabilization, corneas were incubated with goat anti-8-OHdG (1:200; Millipore) followed by incubation with appropriate secondary antibodies. Nuclei were stained with TO-PRO-3 iodide (Molecular Probes). Corneal endothelial tight junctions were detected by rabbit anti-zonula occludens-1 (anti-ZO-1) antibody (1:300; Invitrogen).
An Nrf2-controlled pathway is affected during the endothelial cell loss from surgery and from dystrophic degeneration. […] Nrf2 is a transcription factor that causes a coordinated upregulation of multiple antioxidants, such as glutathione transferases, glutathione peroxidases, peroxiredoxins, thioredoxins, NADH(P)H hydrogenases, heme-oxygenases, glutamate- cysteine ligases. Sulforaphane (SF) and D3T upregulate Nrf2 on a protein level and enhance cellular antioxidant defense. Thus, studies were carried out to investigate the effect of SF on endothelial cell apoptosis with and without pro-oxidants. Post-keratoplasty FECD specimens, containing corneal endothelium attached to the Descemet membrane, were exposed to four experimental conditions: +/− tBHP with is a long acting pro-oxidant and +/−SF. The rate of endothelial cell apoptosis (as detected by TUNEL) in FECD endothelium was 31% and it decreased to 13% (p=1.5E-06) with SF treatment. Under pro-oxidant conditions, SF decreased endothelial cell apoptosis from 60% to 33% (p=0.016) (FIG. 11A). Similarly, D3T diminished endothelial cell apoptosis by decreasing the number of apoptotic cells from 52% to 30% (p<0.05) (FIG. 11B).

OO [H2O2, hydrogen peroxide]
relative expression of Nrf2 mRNA (mean±SEM) [1]: 0.66±0.02 | level of 8-OHdG relative to control cells [2]: 2 fold | CE cell density as measured by ZO-1 labeling ([3]; 0-100 μM): no statistically significant effect | percent of hexagonal cells (pleomorphism) ([3]; 100 μM, P=0.007): declined significantly | mitochondrial staining (MitoTracker CMXRos) ([4]; 1-hour treatment): decline in the mitochondrial density | mitochondrial staining (MitoTracker CMXRos) ([4]; 2-hour treatment, P<0.01): no detectable mitochondrial staining | CE cells with early apoptosis (annexin-V-positive, PI-negative) ([4]; 60 minutes, P<0.01): Approximately 5% | CE cells with early apoptosis (annexin-V-positive, PI-negative) ([4]; 90 minutes, P<0.01): ~11% | mitochondrial staining (MitoTracker CMXRos) ([4]; 90 minutes, P<0.01): significant decrease | late apoptosis (annexin-V-positive, PI-positive) ([4]; 120 minutes, P<0.01): identified

S=c1ccss1 [D3T, 3H-1,2-dithiole-3-thione]
number of apoptotic cells with D3T ([5]; FECD, absence of oxidative stress, 52% without D3T, p<0.05): 30% | effect on percentage of apoptotic cells in FECD ([5]; absence of oxidative stress): decreased the percentage of apoptotic cells

C[S+]([O-])CCCCN=C=S (stereo not shown) [SF, sulforaphane]
rate of endothelial cell apoptosis (as detected by TUNEL) with SF treatment ([5]; FECD endothelium, without pro-oxidant (tBHP-), 31% without SF, p=1.5E-06): 13% | endothelial cell apoptosis with SF under pro-oxidant conditions ([5]; FECD specimens exposed to tBHP, 60% without SF, p=0.016): 33% | decrease of endothelial cell apoptosis in FECD ([5]; SF treatment, without pro-oxidant conditions [tBHP-], p=1.57E-06): 58% | decrease of endothelial cell apoptosis ([5]; specimens exposed to pro-oxidants or tBHP, p=0.016): ≤ 45%
